Measurements published in US20220324906A1 (Novo Nordisk A/S, priority 2014, published 2022).

Experiments:
eMuLV virus = assay: Clearance of spiked eMuLV by chromatography with a caprylic acid wash; conditions: 30 min
Experimental: A cell line media containing a recombinant human Fab-fragment was filtered through a 0.22 μm and then spiked with eMuLV virus. The spiked media was applied to a column packed with Capto L media (GE-Healthcare). […] Process temperature was 15-25° C. […] A cell line media containing a recombinant human antibody (IgG1) was filtered through a 0.22 μm filter and spiked with eMuLV virus. The spiked media was loaded on a column packed with Protein A (Mab Select SuRe, Ge Healthcare). […] After pH had stabilised the washing continued for 30 min. After 3 other washings (equilibration buffer, 50 mmol/kg phosphate, 1 mol/kg NaCl and then equilibration buffer), the mAb was eluted from the column with a formate buffer, pH 3.5. […] The process temperature was 15-25° C. A cell line media containing a recombinant human antibody (IgG4) was filtered through a 0.22 μm filter and spiked with eMuLV virus. The spiked media was loaded on a column packed with Protein A (Mab Select SuRe, Ge Healthcare). […] After pH had stabilised the washing continued for 30 min. After 3 other washing (equilibration buffer, 50 mmol/kg phosphate, 1 mol/kg NaCl) and then equilibration buffer), the mAb was eluted from the column with a formate buffer, pH 3.5. […] The process temperature was 15-25° C. A cell line media containing a recombinant human antibody (IgG1) was filtered through a 0.22 μm filter and spiked with eMuLV virus. The spiked media was loaded on a column packed with Protein A (Mab Select SuRe, Ge Healthcare). […] After pH had stabilised the washing continued for 30 min. After 3 other washings (equilibration buffer, 50 mmol/kg phosphate, 1 mol/kg NaCl and then equilibration buffer), the mAb was eluted from the column with a formate buffer, pH 3.5. […] The process temperature was 2-8° C.

MuLV virus = assay: Inactivation of MuLV with caprylic acid at different concentrations and pH; conditions: for Titre of MuLV virus after inactivation with caprylic acid: MuLV content 1.2 × 10^6; for Titre of MuLV after inactivating of MuLV with 60 mM caprylic acid: MuLV content 2.7 × 10^5
From the text: The inactivation of MuLV was investigated at different concentrations of caprylic and at different pH (Table 6).

[1] = 60 mM, pH 6.0, free caprylic acid 4.3 mM, 1 minute
[2] = 60 mM, pH 6.0, free caprylic acid 4.3 mM, 5 minutes
[3] = 60 mM, pH 6.0, free caprylic acid 4.3 mM, 10 minutes
[4] = 60 mM, pH 6.0, free caprylic acid 4.3 mM, 30 minutes

CCCCCCCC(=O)O [caprylic acid]
>2.8: LRV (eMuLV virus; Example 3: IgG4, Protein A, 32 mmol/kg caprylate buffer pH 5.8 (2.9 mM free caprylic acid), 15-25° C.)
2.5: Titre of MuLV after inactivating of MuLV with 60 mM caprylic acid (MuLV virus; [1])
complete inactivation: inactivation of MuLV (MuLV virus; pH range 5.0 to 6.0, free caprylic acid at least about 4 mM, after 5 minutes)
0: Titre of MuLV virus after inactivation with caprylic acid (MuLV virus; 10 mM, pH 5.0, free caprylic acid 4.4 mM, 5 minutes) | Titre of MuLV virus after inactivation with caprylic acid (MuLV virus; 10 mM, pH 5.0, free caprylic acid 4.4 mM, 10 minutes) | Titre of MuLV virus after inactivation with caprylic acid (MuLV virus; 10 mM, pH 5.0, free caprylic acid 4.4 mM, 30 minutes) | Titre of MuLV virus after inactivation with caprylic acid (MuLV virus; 20 mM, pH 5.5, free caprylic acid 3.9 mM, 5 minutes) | Titre of MuLV virus after inactivation with caprylic acid (MuLV virus; 20 mM, pH 5.5, free caprylic acid 3.9 mM, 10 minutes) | Titre of MuLV virus after inactivation with caprylic acid (MuLV virus; 20 mM, pH 5.5, free caprylic acid 3.9 mM, 30 minutes) | Titre of MuLV after inactivating of MuLV with 60 mM caprylic acid (MuLV virus; 60 mM, pH 5.9, free caprylic acid 5.3 mM, 5 minutes) | Titre of MuLV after inactivating of MuLV with 60 mM caprylic acid (MuLV virus; 60 mM, pH 5.9, free caprylic acid 5.3 mM, 10 minutes) | Titre of MuLV after inactivating of MuLV with 60 mM caprylic acid (MuLV virus; 60 mM, pH 5.9, free caprylic acid 5.3 mM, 30 minutes) | Titre of MuLV virus after inactivation with caprylic acid (MuLV virus; [1]) | Titre of MuLV virus after inactivation with caprylic acid (MuLV virus; [2]) | Titre of MuLV after inactivating of MuLV with 60 mM caprylic acid (MuLV virus; [2]) | Titre of MuLV virus after inactivation with caprylic acid (MuLV virus; [3]) | Titre of MuLV after inactivating of MuLV with 60 mM caprylic acid (MuLV virus; [3]) | Titre of MuLV virus after inactivation with caprylic acid (MuLV virus; [4]) | Titre of MuLV after inactivating of MuLV with 60 mM caprylic acid (MuLV virus; [4]) | Titre of MuLV after inactivating of MuLV with 60 mM caprylic acid (MuLV virus; 60 mM, pH 6.1, free caprylic acid 3.5 mM, 1 minute) | Titre of MuLV after inactivating of MuLV with 60 mM caprylic acid (MuLV virus; 60 mM, pH 6.1, free caprylic acid 3.5 mM, 5 minutes) | Titre of MuLV after inactivating of MuLV with 60 mM caprylic acid (MuLV virus; 60 mM, pH 6.1, free caprylic acid 3.5 mM, 10 minutes) | Titre of MuLV after inactivating of MuLV with 60 mM caprylic acid (MuLV virus; 60 mM, pH 6.1, free caprylic acid 3.5 mM, 30 minutes) | Titre of MuLV after inactivating of MuLV with 60 mM caprylic acid (MuLV virus; 60 mM, pH 6.2, free caprylic acid 2.8 mM, 5 minutes) | Titre of MuLV after inactivating of MuLV with 60 mM caprylic acid (MuLV virus; 60 mM, pH 6.2, free caprylic acid 2.8 mM, 10 minutes) | Titre of MuLV after inactivating of MuLV with 60 mM caprylic acid (MuLV virus; 60 mM, pH 6.2, free caprylic acid 2.8 mM, 30 minutes) | Titre of MuLV after inactivating of MuLV with 60 mM caprylic acid (MuLV virus; 60 mM, pH 6.3, free caprylic acid 2.2 mM, 5 minutes) | Titre of MuLV after inactivating of MuLV with 60 mM caprylic acid (MuLV virus; 60 mM, pH 6.3, free caprylic acid 2.2 mM, 10 minutes) | Titre of MuLV after inactivating of MuLV with 60 mM caprylic acid (MuLV virus; 60 mM, pH 6.3, free caprylic acid 2.2 mM, 30 minutes)
no inactivation was observed: inactivation of MuLV (MuLV virus; free caprylic acid below 1 mM)
more than 5.4 log 10: inactivation of MuLV (MuLV virus; 60 mM caprylic acid, pH range 5.9 to 6.3, within 5 minutes)
>3.0: LRV (eMuLV virus; Example 2: IgG1, Protein A, 32 mmol/kg caprylate buffer pH 5.8 (2.9 mM free caprylic acid), 15-25° C.) | LRV (eMuLV virus; Example 4: IgG1, Protein A, 35 mmol/kg caprylate buffer pH 5.7 (3.9 mM free caprylic acid), 2-8° C.)
partial inactivation: inactivation of MuLV (MuLV virus; caprylic acid concentrations of about 2 mM, after 30 minutes)
